Source: ChEMBL document CHEMBL4251572, “Novel aminopyrimidinyl benzimidazoles as potentially antimicrobial agents: Design, synthesis and biological evaluation” (Eur J Med Chem, 2018)
Converted amounts (≈) assume the structure as drawn.

What was measured:
Saccharomyces cerevisiae = test: Antifungal against Saccharomyces cerevisiae after 24 hrs by two fold serial dilution method; assay type: functional
Micrococcus luteus = test: Antibacterial activity against Micrococcus luteus ATCC4698 after 24 hrs by micro broth dilution assay; assay type: functional; conditions: ATCC4698, 24 h
Shigella dysenteriae = test: Antibacterial activity against Shigella dysenteriae after 24 hrs by micro broth dilution assay; assay type: functional
Pseudomonas aeruginosa = test: Antibacterial activity against Pseudomonas aeruginosa after 24 hrs by micro broth dilution assay; assay type: functional
Bacillus subtilis = test: Antibacterial activity against Bacillus subtilis after 24 hrs by micro broth dilution assay; assay type: functional
Escherichia coli [1] = test: Antibacterial activity against Escherichia coli DH52 after 24 hrs by micro broth dilution assay; assay type: functional; conditions: DH52, 24 h
Pichia norvegensis = test: Antifungal against Candida mycoderma after 24 hrs by two fold serial dilution method; assay type: functional
Cyberlindnera jadinii = test: Antifungal against Candida utilis after 24 hrs by two fold serial dilution method; assay type: functional; conditions: Williopsis jadinii
Escherichia coli [2] = test: Antibacterial activity against Escherichia coli JM109 after 24 hrs by micro broth dilution assay; assay type: functional; conditions: JM109, 24 h
Salmonella typhi = test: Antibacterial activity against Bacillus typhi after 24 hrs by micro broth dilution assay; assay type: functional, Salmonella enterica subsp. enterica serovar Typhi; conditions: Salmonella enterica
Candida albicans = test: Antifungal against Candida albicans ATCC 76615 after 24 hrs by two fold serial dilution method; assay type: functional; conditions: ATCC 76615, 24 h
Bacillus = test: Antibacterial activity against Bacillus proteus ATCC 13315 after 24 hrs by micro broth dilution assay; assay type: functional; conditions: ATCC 13315, 24 h
Staphylococcus aureus [3] = test: Antibacterial activity against methicillin-resistant Staphylococcus aureus N315 after 24 hrs by micro broth dilution assay; assay type: functional; conditions: N315, 24 h
Staphylococcus aureus [4] = test: Antibacterial activity against Staphylococcus aureus ATCC 25923 after 24 hrs by micro broth dilution assay; assay type: functional; conditions: ATCC 25923, 24 h
Aspergillus flavus = test: Antifungal against Aspergillus flavus after 24 hrs by two fold serial dilution method; assay type: functional

SMILES | MIC (Saccharomyces cerevisiae) [µg/mL] | MIC (Micrococcus luteus) [µg/mL] | MIC (Shigella dysenteriae) [µg/mL] | MIC (Pseudomonas aeruginosa) [µg/mL] | MIC (Bacillus subtilis) [µg/mL] | MIC (Escherichia coli [1]) [µg/mL] | MIC (Pichia norvegensis) [µg/mL] | MIC (Cyberlindnera jadinii) [µg/mL] | MIC (Escherichia coli [2]) [µg/mL] | MIC (Salmonella typhi) [µg/mL] | MIC (Candida albicans) [µg/mL] | MIC (Bacillus) [µg/mL] | MIC (Staphylococcus aureus [3]) [µg/mL] | MIC (Staphylococcus aureus [4]) [µg/mL] | MIC (Aspergillus flavus) [µg/mL]
CCCCCCCn1c(C(=O)/C=C/c2ccc(F)cc2)nc2ccccc21 | 512 (≈ 1400 µM) | 512 (≈ 1400 µM) | 512 (≈ 1400 µM) | 512 (≈ 1400 µM) | 512 (≈ 1400 µM) | 512 (≈ 1400 µM) | 512 (≈ 1400 µM) | > 512 | 128 (≈ 351 µM) | 512 (≈ 1400 µM) | 512 (≈ 1400 µM) | 512 (≈ 1400 µM) | 64 (≈ 176 µM) | 512 (≈ 1400 µM) | 512 (≈ 1400 µM)
O=C(/C=C/c1ccc(F)cc1)c1nc2ccccc2[nH]1 | 4 (≈ 15 µM) | 16 (≈ 60.1 µM) | 256 (≈ 961 µM) | 128 (≈ 481 µM) | 64 (≈ 240 µM) | 64 (≈ 240 µM) | 128 (≈ 481 µM) | > 512 | 16 (≈ 60.1 µM) | 32 (≈ 120 µM) | 128 (≈ 481 µM) | 32 (≈ 120 µM) | 64 (≈ 240 µM) | 16 (≈ 60.1 µM) | 512 (≈ 1920 µM)
CCCCCCCCn1c(C(=O)/C=C/c2ccc(F)cc2)nc2ccccc21 | 512 (≈ 1350 µM) | 32 (≈ 84.5 µM) | 512 (≈ 1350 µM) | 512 (≈ 1350 µM) | 16 (≈ 42.3 µM) | 8 (≈ 21.1 µM) | 512 (≈ 1350 µM) | 64 (≈ 169 µM) | 512 (≈ 1350 µM) | 128 (≈ 338 µM) | 512 (≈ 1350 µM) | 512 (≈ 1350 µM) | 512 (≈ 1350 µM) | 512 (≈ 1350 µM) | 256 (≈ 676 µM)
CCCCCCCn1c(C(=O)/C=C/c2ccc(Cl)cc2Cl)nc2ccccc21 | 512 (≈ 1230 µM) | 512 (≈ 1230 µM) | 256 (≈ 616 µM) | 512 (≈ 1230 µM) | 512 (≈ 1230 µM) | 512 (≈ 1230 µM) | 512 (≈ 1230 µM) | 512 (≈ 1230 µM) | 512 (≈ 1230 µM) | 512 (≈ 1230 µM) | 512 (≈ 1230 µM) | 512 (≈ 1230 µM) | 512 (≈ 1230 µM) | 128 (≈ 308 µM) | 512 (≈ 1230 µM)
CCCCCCn1c(C(=O)/C=C/c2ccc(C)cc2)nc2ccccc21 | 512 (≈ 1480 µM) | 512 (≈ 1480 µM) | 512 (≈ 1480 µM) | 512 (≈ 1480 µM) | 512 (≈ 1480 µM) | 512 (≈ 1480 µM) | 512 (≈ 1480 µM) | 512 (≈ 1480 µM) | 512 (≈ 1480 µM) | 512 (≈ 1480 µM) | 512 (≈ 1480 µM) | 512 (≈ 1480 µM) | 16 (≈ 46.2 µM) | 512 (≈ 1480 µM) | 512 (≈ 1480 µM)
CCCCCCCCn1c(C(=O)/C=C/c2ccc(Cl)cc2)nc2ccccc21 | 4 (≈ 10.1 µM) | 512 (≈ 1300 µM) | 512 (≈ 1300 µM) | 512 (≈ 1300 µM) | 512 (≈ 1300 µM) | 8 (≈ 20.3 µM) | 512 (≈ 1300 µM) | 512 (≈ 1300 µM) | 512 (≈ 1300 µM) | 128 (≈ 324 µM) | 4 (≈ 10.1 µM) | 512 (≈ 1300 µM) | 512 (≈ 1300 µM) | 512 (≈ 1300 µM) | 32 (≈ 81 µM)
O=C(/C=C/c1ccc(Cl)cc1)c1nc2ccccc2[nH]1 | 128 (≈ 453 µM) | 64 (≈ 226 µM) | 512 (≈ 1810 µM) | 512 (≈ 1810 µM) | 512 (≈ 1810 µM) | 8 (≈ 28.3 µM) | 512 (≈ 1810 µM) | 512 (≈ 1810 µM) | 256 (≈ 905 µM) | 512 (≈ 1810 µM) | 512 (≈ 1810 µM) | 512 (≈ 1810 µM) | 512 (≈ 1810 µM) | 128 (≈ 453 µM) | 32 (≈ 113 µM)
CCCCCCCCn1c(-c2cc(-c3ccc(Cl)cc3Cl)nc(N)n2)nc2ccccc21 | 16 (≈ 34.2 µM) | 32 (≈ 68.3 µM) | 512 (≈ 1090 µM) | 512 (≈ 1090 µM) | 512 (≈ 1090 µM) | 512 (≈ 1090 µM) | 512 (≈ 1090 µM) | 8 (≈ 17.1 µM) | 512 (≈ 1090 µM) | 512 (≈ 1090 µM) | 512 (≈ 1090 µM) | 4 (≈ 8.54 µM) | 256 (≈ 547 µM) | 256 (≈ 547 µM) | 512 (≈ 1090 µM)
CCCCCCn1c(C(=O)/C=C/c2ccc(Cl)cc2)nc2ccccc21 | 8 (≈ 21.8 µM) | 32 (≈ 87.2 µM) | 512 (≈ 1400 µM) | 512 (≈ 1400 µM) | 256 (≈ 698 µM) | 16 (≈ 43.6 µM) | 128 (≈ 349 µM) | 512 (≈ 1400 µM) | 512 (≈ 1400 µM) | 128 (≈ 349 µM) | 512 (≈ 1400 µM) | 512 (≈ 1400 µM) | 512 (≈ 1400 µM) | 512 (≈ 1400 µM) | 128 (≈ 349 µM)
CCCCCCCCn1c(-c2cc(-c3ccc(F)cc3)nc(N)n2)nc2ccccc21 | 16 (≈ 38.3 µM) | 32 (≈ 76.6 µM) | 512 (≈ 1230 µM) | 512 (≈ 1230 µM) | 256 (≈ 613 µM) | 512 (≈ 1230 µM) | 64 (≈ 153 µM) | 8 (≈ 19.2 µM) | 256 (≈ 613 µM) | 512 (≈ 1230 µM) | 256 (≈ 613 µM) | 512 (≈ 1230 µM) | 256 (≈ 613 µM) | 256 (≈ 613 µM) | 128 (≈ 307 µM)
CCCCCCCCn1c(-c2cc(-c3ccc(Cl)cc3)nc(N)n2)nc2ccccc21 | 8 (≈ 18.4 µM) | 16 (≈ 36.9 µM) | 32 (≈ 73.7 µM) | 32 (≈ 73.7 µM) | 2 (≈ 4.61 µM) | 512 (≈ 1180 µM) | 8 (≈ 18.4 µM) | 8 (≈ 18.4 µM) | 512 (≈ 1180 µM) | 4 (≈ 9.22 µM) | 8 (≈ 18.4 µM) | 256 (≈ 590 µM) | 128 (≈ 295 µM) | 256 (≈ 590 µM) | 256 (≈ 590 µM)
